Here are results for 16 compounds from patent US9586947B2, “Imidazoline derivatives, preparation methods thereof, and their applications in medicine” (priority 2012, dated 2017).

Like-named read-outs stand apart in the source and are kept apart here.

In data set [1] the test system is PSA secretion of LNCaP cells. Put plainly: Inhibitory activity on PSA secretion of LNCaP cells. The class given is cell-based. As to conditions: Homo sapiens, 96 h, read-out: IC50 (inhibition of PSA secretion of LNCaP cells). The procedure: The following in vitro assay was performed to determine the activity of the compounds of the present invention for inhibiting prostate specific antigen (PSA) secretion of LNCaP cells.
(11). Testosterone culture medium: RIPM 1640 culture medium, 10% CS-FBS, 1% Pen Strep, 1 nM testosterone
LNCaP cells were subcultured in cell culture medium, resuspended in active carbon culture medium, and then inoculated into a 96-well plate (100 μl/well) with an inoculation density of 5×10^4 cells/well.
The test compounds were dissolved in DMSO (dimethyl sulfoxide) and prepared as a 10 mM stock solution. When used, the stock solution was diluted with 5×DMSO and then diluted with a threefold gradient to obtain 8 gradient concentrations. Then, the 8 gradient concentrations were each diluted with 20× testosterone culture medium, in order to ensure DMSO concentration in each culture system was 0.5%. Diluted test compounds remained to be tested.
10 μl of diluted test compounds were added to a 96-well plate and mixed gently. 10 μl of 0.5% DMSO diluted with active carbon culture medium was added to the blank group, and 10 μl of 0.5% DMSO diluted with testosterone culture medium was added to the control group. The 96-well plate was cultured in an incubator under the conditions of 37° C. and 5% CO2.
After 4 days of incubation, 60 μl of cell cultural supernatants were collected, and the OD450 value per well was measured on a NOVO Star microplate reader using PSA kit (Abnova, KA0208).
(§1) IC50 values were calculated from the data of the inhibition rates of the test compounds at various concentrations.

For the next data set, the system named is LNCaP cells. The data set is described as follows: Proliferation inhibition of LNCaP cells (CCK-8). The class given is cell-based. As to conditions: Homo sapiens, 144 h, cultured 3 + 3 days, CCK-8, OD at 450 nm. The procedure: The following in vitro assay was performed to determine the activity of the compounds of the present invention for inhibiting the proliferation of LNCaP cells.
(1). Cell counting reagent CCK-8 (DOJINDO, CK04)
See experimental procedure from Test Example 1.
After LNCaP cells were cultured for 3 days, the culture medium, test compounds, blank group, and control group were renewed with half of the liquid volume, and were cultured for another 3 days. Then, all 96-well plates were mixed gently with 10 μl of CCK-8 and cultured in an incubator for 2-3 hours under the conditions of 37° C. and 5% CO2. The OD value per well was measured at 450 nm on a Victor3 microplate reader.
as §1

Data set [2] can be described thus: Pharmacokinetics assay in rats, intragastric administration. The class given is in vivo. As to conditions: Sprague-Dawley, rat, in vivo, po, male SD rats, 5 mg/kg; for Vd/F: read-out: Apparent Distribution Volume Vz/F; for AUC: read-out: Area Under Curve AUC; for CL/F: read-out: Clearance CLz/F; for half-life: read-out: Half-Life T½ (converted); for MRT: read-out: Mean Residence Time MRT; for Cmax: read-out: Plasma Conc. Cmax. The procedure: Male rats were used as test animals. The compounds of Example 6, Example 9, Example 11, Example 13, Example 15, Example 16, Example 17, Example 44, and Example 45 were administered intragastrically to rats to determine the drug concentration in plasma at different time points by LC/MS/MS method. The pharmacokinetic behavior of the compounds of the present invention was studied and evaluated in rats.
27 healthy adult male Sprague-Dawley (SD) rats, purchased from SINO-BRITISH SIPPR/BK LAB. ANIMAL LTD., CO, Certificate No.: SCXK (Shanghai) 2008-0016, were divided into 9 groups, with 3 rats in each group.
The appropriate amount of test compounds was weighed and mixed with 0.5% CMC-Na to prepare a 0.5 mg/mL suspension by an ultrasonic method.
After an overnight fast, 27 SD rats were divided into 9 groups, and administered the compounds intragastrically at a dose of 5.0 mg/kg and an administration volume of 10 mL/kg.
Compounds of Example 6, Example 9, Example 11, Example 13, Example 15, Example 16, Example 17, Example 44, and Example 45 were administered intragastrically to rats. Blood samples (0.1 mL) were taken from the orbital sinus before administration, and at 0.5 h, 1.0 h, 2.0 h, 3.0 h, 4.0 h, 6.0 h, 8.0 h, 11.0 h, and 24.0 h after administration, stored in heparinized tubes, and centrifuged for 5 minutes at 3,500 rpm to separate blood plasma. The plasma samples were stored at −20° C. The rats were fed 2 hours after administration.
The concentration of the different test compounds in rat plasma after intragastrically administering the test compounds was determined by LC-MS/MS method. The linearity of the method is 1.00-2000 ng/ml. Plasma samples were analyzed after protein precipitation was accomplished by the addition of methanol.

Setting [3] is: LNCaP cells, 1 nM testosterone medium, 4 days of incubation, PSA kit OD450.

The term IC50 denotes the concentration needed to halve the response being measured. For `CC1(C)C(=O)N(c2ccc(C#N)c(C(F)(F)F)c2)C(=S)N1c1ccc(O[C@@H]2COC[C@H]2O)c(F)c1` (racemic) [Example 7, 4-(3-(3-Fluoro-4-(((3R,4R/3S,4S)-4-hydroxytetrahydrofuran-3-yl)oxy)phenyl)-4,4-dimethyl-5-oxo-2-thioxoimidazolidin-1-yl)-2-(trifluoromethyl)benzonitrile], the half-maximal inhibitory concentration (IC50) in data set [1] (LNCaP) was found to be 0.023 µM.

As to `CC1(C)C(=O)N(c2ccc(C#N)c(C(F)(F)F)c2)C(=S)N1c1ccc(O[C@@H]2COC[C@H]2O)cc1` (racemic) [Example 14, 4-(3-(4-(((3R,4R/3S,4S)-4-Hydroxytetrahydrofuran-3-yl)oxy)phenyl)-4,4-dimethyl-5-oxo-2-thioxoimidazolidin-1-yl)-2-(trifluoromethyl)benzonitrile], the 50% inhibitory concentration (IC50) in data set [1] (LNCaP) stood at 0.019 µM.

With `CC1(C)C(=O)N(c2ccc(C#N)c(C(F)(F)F)c2)C(=S)N1c1ccc(O[C@@H]2CCOC2)c(F)c1` [Example 1, (R)-4-(3-(3-Fluoro-4-((tetrahydrofuran-3-yl)oxy)phenyl)-4,4-dimethyl-5-oxo-2-thioxoimidazolidin-1-yl)-2-(trifluoromethyl)benzonitrile], the values for the IC50 (in data set [1] (setting [3]); in the data set with LNCaP cells) were 0.034 µM and 0.195 µM, respectively.

Consider `CC1(C)C(=O)N(c2ccc(C#N)c(C(F)(F)F)c2)C(=S)N1c1ccc(O[C@H]2CCOC2)c(F)c1` [Example 2, (S)-4-(3-(3-Fluoro-4-((tetrahydrofuran-3-yl)oxy)phenyl)-4,4-dimethyl-5-oxo-2-thioxoimidazolidin-1-yl)-2-(trifluoromethyl)benzonitrile], for which the IC50 in data set [1] (setting [3]) was 0.045 µM; in the data set with LNCaP cells, 0.097 µM.

In the case of `CC1(C)C(=O)N(c2ccc(C#N)c(C(F)(F)F)c2)C(=S)N1c1ccc(OC(F)F)c(F)c1` [Example 3, 4-(3-(4-(Difluoromethoxy)-3-fluorophenyl)-4,4-dimethyl-5-oxo-2-thioxoimidazolidin-1-yl)-2-(trifluoromethyl)benzonitrile], the half-maximal inhibitory concentration (IC50) in data set [1] (setting [3]) worked out at 0.035 µM; in the data set with LNCaP cells, 0.046 µM.

With `CC1(C)C(=O)N(c2ccc(C#N)c(C(F)(F)F)c2)C(=S)N1c1ccc(OC2CCOCC2)c(F)c1` [Example 4, 4-(3-(3-Fluoro-4-((tetrahydro-2H-pyran-4-yl)oxy)phenyl)-4,4-dimethyl-5-oxo-2-thioxoimidazolidin-1-yl)-2-(trifluoromethyl)benzonitrile], in data set [1] (setting [3]), the concentration for half-maximal inhibition (IC50) was 0.093 µM.

Take `CC1(C)C(=O)N(c2ccc(C#N)c(C(F)(F)F)c2)C(=S)N1c1ccc(OCC2(O)CC2)c(F)c1` [Example 5, 4-(3-(3-Fluoro-4-((1-hydroxycyclopropyl)methoxy)phenyl)-4,4-dimethyl-5-oxo-2-thioxoimidazolidin-1-yl)-2-(trifluoromethyl)benzonitrile]: the values for the IC50 (in data set [1] (setting [3]); with LNCaP cells) were 0.124 µM and 0.087 µM, respectively.

Broadly, the AUC is concentration integrated over time. The half-life is the time in which the quantity being followed falls by half. For orientation: MRT means the average time that molecules of a dose stay in the body. One may read the Cmax as the maximum level reached in the sampled fluid or tissue. As to `CC1(C)C(=O)N(c2ccc(C#N)c(C(F)(F)F)c2)C(=S)N1c1ccc(OCC2(N)CC2)nc1` [Example 11, 4-(3-(6-((1-Aminocyclopropyl)methoxy)pyridin-3-yl)-4,4-dimethyl-5-oxo-2-thioxoimidazolidin-1-yl)-2-(trifluoromethyl)benzonitrile], the half-inhibitory concentration (IC50) in data set [1] (LNCaP) worked out at 0.035 µM. In data set [2], the Vd/F is 9.94 ± 0.633 L/kg, the AUC stood at 11.5 ± 1.38 µg·h/mL, the CL/F turned out to be 0.441 ± 0.0522 L/h/kg and the half-life was 15.8 ± 2.2 h. Further, in data set [2], the mean residence time (MRT) came out at 23.2 ± 2.9 h and the highest concentration (Cmax) was found to be 0.43 ± 0.014 µg/mL.

For `CC1(C)C(=O)N(c2ccc(C#N)c(C(F)(F)F)c2)C(=S)N1c1ccc(O[C@H]2COC[C@@H]2O)cc1` [Example 16, 4-(3-(4-(((3S,4S)-4-hydroxytetrahydrofuran-3-yl)oxy)phenyl)-4,4-dimethyl-5-oxo-2-thioxoimidazolidin-1-yl)-2-(trifluoromethyl)benzonitrile], in data set [1] (LNCaP), the IC50 amounted to 0.012 µM. For the same compound, in data set [2], the Vd/F amounted to 3.59 ± 0.662 L/kg, the area under the curve (AUC) was found to be 23.3 ± 5.9 µg·h/mL, the CL/F was 0.223 ± 0.0504 L/h/kg and the half-life is 11.3 ± 1.3 h. In data set [2], the MRT was 18.4 ± 2.6 h and the highest concentration (Cmax) was 0.971 ± 0.147 µg/mL.

In the case of `CC1(C)C(=O)N(c2ccc(C#N)c(C(F)(F)F)c2)C(=S)N1c1ccc(OCCO)cc1` [Example 17, 4-(3-(4-(2-Hydroxyethoxy)phenyl)-4,4-dimethyl-5-oxo-2-thioxoimidazolidin-1-yl)-2-(trifluoromethyl)benzonitrile], the IC50 in data set [1] (LNCaP) is 0.024 µM. For the same compound, in data set [2], the Vd/F is 3.76 ± 0.591 L/kg, the exposure (AUC) was 12.2 ± 1.52 µg·h/mL, the CL/F came out at 0.413 ± 0.0534 L/h/kg and the half-life is 6.31 ± 0.5 h. Further, in data set [2], the mean residence time MRT is 10.8 ± 0.8 h and the Cmax stood at 0.864 ± 0.086 µg/mL.

In the case of `CN1CC[C@H](Oc2ccc(N3C(=S)N(c4ccc(C#N)c(C(F)(F)F)c4)C(=O)C3(C)C)cc2F)C1` [Example 27, (S)-4-(3-(3-Fluoro-4-((1-methylpyrrolidin-3-yl)oxy)phenyl)-4,4-dimethyl-5-oxo-2-thioxoimidazolidin-1-yl)-2-(trifluoromethyl)benzonitrile], in data set [1] (setting [3]), the IC50 turned out to be 0.083 µM.

Take `Cc1cc(N2C(=O)C(C)(C)N(c3ccc(OCC4(N)CC4)c(F)c3)C2=S)ccc1C#N` [Example 38, 4-(3-(4-((1-Aminocyclopropyl)methoxy)-3-fluorophenyl)-4,4-dimethyl-5-oxo-2-thioxoimidazolidin-1-yl)-2-methylbenzonitrile]: in data set [1] (setting [3]), the concentration for half-maximal inhibition (IC50) turned out to be 0.033 µM.

On to `CC(=O)N1CC(O)C(Oc2ccc(N3C(=S)N(c4ccc(C#N)c(C(F)(F)F)c4)C(=O)C3(C)C)cc2F)C1` (centres unmarked) [Example 46, 4-(3-(4-((1-Acetyl-4-hydroxypyrrolidin-3-yl)oxy)-3-fluorophenyl)-4,4-dimethyl-5-oxo-2-thioxoimidazolidin-1-yl)-2-(trifluoromethyl)benzonitrile], for which the IC50 in data set [1] (setting [3]) was 0.047 µM.

As for `CN1CC(O)C(Oc2ccc(N3C(=S)N(c4ccc(C#N)c(C(F)(F)F)c4)C(=O)C3(C)C)cc2F)C1` (centres unmarked) [Example 47, 4-(3-(3-Fluoro-4-((4-hydroxy-1-methylpyrrolidin-3-yl)oxy)phenyl)-4,4-dimethyl-5-oxo-2-thioxoimidazolidin-1-yl)-2-(trifluoromethyl)benzonitrile], the concentration for half-maximal inhibition (IC50) in data set [1] (setting [3]) turned out to be 0.021 µM.

On to `CC1(C)C(=O)N(c2ccc(C#N)c(C(F)(F)F)c2)C(=S)N1c1ccc(OC[C@@H](O)CO)c(F)c1` [Example 49, (S)-4-(3-(4-(2,3-Dihydroxypropoxy)-3-fluorophenyl)-4,4-dimethyl-5-oxo-2-thioxoimidazolidin-1-yl)-2-(trifluoromethyl)benzonitrile], for which the IC50 in data set [1] (LNCaP) turned out to be 0.035 µM.

Turning to `CC1(C)C(=O)N(c2ccc(C#N)c(C(F)(F)F)c2)C(=S)N1c1ccc(OC[C@H](O)CO)c(F)c1` [Example 50, (R)-4-(3-(4-(2,3-Dihydroxypropoxy)-3-fluorophenyl)-4,4-dimethyl-5-oxo-2-thioxoimidazolidin-1-yl)-2-(trifluoromethyl)benzonitrile], in data set [1] (LNCaP), the IC50 was 0.043 µM.
